Values belong to the compound of their own block, whether it stands above or below them.
System: 171881-019-R-J1-PDC tumor spheroid viability
Experiment: Anticancer human tumor 171881-019-R-J1-PDC patient-derived invasive breast carcinoma cell line growth inhibition [PI3K]
Settings: spheroids with HUVEC and MSC; for viability, T/C: stronger effect = lower value
How it was run: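 Three cell types, namely tumor cells, endothelial cells and mesenchymal stem cells, formed each spheroid. Combinations with four PI3K inhibitors were screened at clinically achievable concentrations decreasing by half-log, and spheroid viability was recorded.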

[1] = curve of first compound, second compound 0.0316 µM
[2] = curve of first compound, second compound 0.1 µM
[3] = curve of first compound, second compound 0.316 µM
[4] = curve of first compound, second compound 1 µM
[5] = curve of first compound, second compound 3.16 µM
[6] = curve of first compound, second compound 10 µM
[7] = second compound 0.0316 µM, first compound 0.000316 µM
[8] = second compound 0.0316 µM, first compound 0.001 µM
[9] = second compound 0.0316 µM, first compound 0.00316 µM
[10] = second compound 0.0316 µM, first compound 0.01 µM
[11] = second compound 0.0316 µM, first compound 0.0316 µM
[12] = second compound 0.0316 µM, first compound 0.1 µM
[13] = second compound 0.1 µM, first compound 0.000316 µM
[14] = second compound 0.1 µM, first compound 0.001 µM
[15] = second compound 0.1 µM, first compound 0.00316 µM
[16] = second compound 0.1 µM, first compound 0.01 µM
[17] = second compound 0.1 µM, first compound 0.0316 µM
[18] = second compound 0.1 µM, first compound 0.1 µM
[19] = second compound 0.316 µM, first compound 0.000316 µM
[20] = second compound 0.316 µM, first compound 0.001 µM
[21] = second compound 0.316 µM, first compound 0.00316 µM
[22] = second compound 0.316 µM, first compound 0.01 µM
[23] = second compound 0.316 µM, first compound 0.0316 µM
[24] = second compound 0.316 µM, first compound 0.1 µM
[25] = second compound 1 µM, first compound 0.000316 µM
[26] = second compound 1 µM, first compound 0.001 µM
[27] = second compound 1 µM, first compound 0.00316 µM
[28] = second compound 1 µM, first compound 0.01 µM
[29] = second compound 1 µM, first compound 0.0316 µM
[30] = second compound 1 µM, first compound 0.1 µM
[31] = second compound 3.16 µM, first compound 0.000316 µM
[32] = second compound 3.16 µM, first compound 0.001 µM
[33] = second compound 3.16 µM, first compound 0.00316 µM
[34] = second compound 3.16 µM, first compound 0.01 µM
[35] = second compound 3.16 µM, first compound 0.0316 µM
[36] = second compound 3.16 µM, first compound 0.1 µM
[37] = second compound 10 µM, first compound 0.000316 µM
[38] = second compound 10 µM, first compound 0.001 µM
[39] = second compound 10 µM, first compound 0.00316 µM
[40] = second compound 10 µM, first compound 0.01 µM
[41] = second compound 10 µM, first compound 0.0316 µM
[42] = second compound 10 µM, first compound 0.1 µM
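Further: spheroids exposed to compound for 7 days before viability read.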
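Wherever viability, T/C is given: 100% = DMSO vehicle-treated spheroids.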

IC50 [1]: 6.6 nM
IC50 [2]: 4.2 nM
IC50 [3]: 0.378 nM
IC50 [4]: < 0.316 nM
IC50 [5]: < 0.316 nM
IC50 [6]: < 0.316 nM
Compound: CC(C)n1nc(-c2ccc3oc(N)nc3c2)c2c(N)ncnc21 + Cc1nc(NC(=O)N2CCCC2C(N)=O)sc1-c1ccnc(C(C)(C)C(F)(F)F)c1
viability, T/C [7]: 93.8%
viability, T/C [8]: 78%
viability, T/C [9]: 63.1%
viability, T/C [10]: 46.8%
viability, T/C [11]: 16.1%
viability, T/C [12]: 3.37%
viability, T/C [13]: 79.6%
viability, T/C [14]: 74.2%
viability, T/C [15]: 52.7%
viability, T/C [16]: 35.6%
viability, T/C [17]: 13.1%
viability, T/C [18]: 4.36%
viability, T/C [19]: 52%
viability, T/C [20]: 44%
viability, T/C [21]: 38%
viability, T/C [22]: 22.4%
viability, T/C [23]: 8.1%
viability, T/C [24]: 2.79%
viability, T/C [25]: 31.4%
viability, T/C [26]: 26.7%
viability, T/C [27]: 18.5%
viability, T/C [28]: 10.9%
viability, T/C [29]: 4.74%
viability, T/C [30]: 2.58%
viability, T/C [31]: 11.9%
viability, T/C [32]: 11.9%
viability, T/C [33]: 8.19%
viability, T/C [34]: 5.31%
viability, T/C [35]: 3.23%
viability, T/C [36]: 2.15%
viability, T/C [37]: 3.18%
viability, T/C [38]: 3.44%
viability, T/C [39]: 2.64%
viability, T/C [40]: 2.7%
viability, T/C [41]: 2.05%
viability, T/C [42]: 1.46%

IC50 (curve of first compound, second compound 0.00316 µM): > 100 nM
IC50 (curve of first compound, second compound 0.01 µM): < 0.316 nM
IC50 [1]: < 0.316 nM
IC50 [2]: < 0.316 nM
IC50 [3]: < 0.316 nM
IC50 [4]: < 0.316 nM
Compound: Cn1ncnc1[C@H]1c2n[nH]c(=O)c3cc(F)cc(c23)N[C@@H]1c1ccc(F)cc1 + COc1c(OCCCN2CCOCC2)ccc2c3n(c(=NC(=O)c4cnc(N)nc4)nc12)CCN3
viability, T/C (second compound 0.00316 µM, first compound 0.000316 µM): 65.8%
viability, T/C (second compound 0.00316 µM, first compound 0.001 µM): 69.5%
viability, T/C (second compound 0.00316 µM, first compound 0.00316 µM): 62.6%
viability, T/C (second compound 0.00316 µM, first compound 0.01 µM): 75%
viability, T/C (second compound 0.00316 µM, first compound 0.0316 µM): 59.7%
viability, T/C (second compound 0.00316 µM, first compound 0.1 µM): 53.5%
viability, T/C (second compound 0.01 µM, first compound 0.000316 µM): 43.3%
viability, T/C (second compound 0.01 µM, first compound 0.001 µM): 47.2%
viability, T/C (second compound 0.01 µM, first compound 0.00316 µM): 43.6%
viability, T/C (second compound 0.01 µM, first compound 0.01 µM): 49.6%
viability, T/C (second compound 0.01 µM, first compound 0.0316 µM): 41.7%
viability, T/C (second compound 0.01 µM, first compound 0.1 µM): 42%
viability, T/C [7]: 24.2%
viability, T/C [8]: 24.2%
viability, T/C [9]: 21.8%
viability, T/C [10]: 24.2%
viability, T/C [11]: 23.6%
viability, T/C [12]: 20.2%
viability, T/C [13]: 7.63%
viability, T/C [14]: 7.42%
viability, T/C [15]: 8.65%
viability, T/C [16]: 7.87%
viability, T/C [17]: 7.14%
viability, T/C [18]: 6.55%
viability, T/C [19]: 2.06%
viability, T/C [20]: 1.56%
viability, T/C [21]: 1.67%
viability, T/C [22]: 1.78%
viability, T/C [23]: 2.25%
viability, T/C [24]: 1.69%
viability, T/C [25]: 1.89%
viability, T/C [26]: 1.19%
viability, T/C [27]: 1.15%
viability, T/C [28]: 1.21%
viability, T/C [29]: 1.01%
viability, T/C [30]: 0.97%

IC50 (curve of compound): 5.87 µM [middle of 4 runs]
Compound: CC1(C)CCC(Nc2ncc(C(F)(F)F)c(-c3c[nH]c4c(P(C)(C)=O)c(C#N)ccc34)n2)CN1 (stereo not drawn)
viability, T/C (compound 0.0316 µM): 72.4% [middle of 4 runs]
viability, T/C (compound 0.1 µM): 70.7% [middle of 4 runs]
viability, T/C (compound 0.316 µM): 78.8% [middle of 4 runs]
viability, T/C (compound 1 µM): 82.7% [middle of 4 runs]
viability, T/C (compound 3.16 µM): 86.8% [middle of 4 runs]
viability, T/C (compound 10 µM): 24% [middle of 4 runs]

IC50 [1]: > 100 nM
IC50 [2]: > 100 nM
IC50 [3]: > 100 nM
IC50 [4]: > 100 nM
IC50 [5]: > 100 nM
IC50 [6]: > 100 nM
Compound: Cn1ncnc1[C@H]1c2n[nH]c(=O)c3cc(F)cc(c23)N[C@@H]1c1ccc(F)cc1 + CC(Nc1ncnc2nc[nH]c12)c1cc2cccc(Cl)c2c(=O)n1-c1ccccc1
viability, T/C [7]: 88.4%
viability, T/C [8]: 96.4%
viability, T/C [9]: 93.4%
viability, T/C [10]: 104%
viability, T/C [11]: 97.3%
viability, T/C [12]: 92.1%
viability, T/C [13]: 102%
viability, T/C [14]: 98.6%
viability, T/C [15]: 88.8%
viability, T/C [16]: 109%
viability, T/C [17]: 90.6%
viability, T/C [18]: 102%
viability, T/C [19]: 93.2%
viability, T/C [20]: 99.5%
viability, T/C [21]: 92.1%
viability, T/C [22]: 106%
viability, T/C [23]: 90.1%
viability, T/C [24]: 95.8%
viability, T/C [25]: 82%
viability, T/C [26]: 100%
viability, T/C [27]: 105%
viability, T/C [28]: 103%
viability, T/C [29]: 97.1%
viability, T/C [30]: 98.2%
viability, T/C [31]: 83.5%
viability, T/C [32]: 91.3%
viability, T/C [33]: 85.1%
viability, T/C [34]: 93.2%
viability, T/C [35]: 92.5%
viability, T/C [36]: 78.1%
viability, T/C [37]: 61.6%
viability, T/C [38]: 64.7%
viability, T/C [39]: 60.5%
viability, T/C [40]: 60.8%
viability, T/C [41]: 57.2%
viability, T/C [42]: 57.6%
